Source: patent US20240158352A1, “NOVEL ADAMANTYL DERIVATIVE OR PHARMACEUTICALLY ACCEPTABLE SALT THEREOF, AND USE THEREOF” (CAN-Therapy Inc., priority 2021, published 2024)

Columns and labels:
[1] = system: LLC, a mouse lung carcinoma cell line; assay: WST cell viability assay, LLC; assay type: cell-based; settings: 0.01 to 20 mM, 2 days; for IC50: 48 h, mouse lung carcinoma, WST, read-out: Cell growth inhibition IC50
Protocol: (§1) After treating LLC, a mouse lung carcinoma cell line, and A549, a human lung cancer cell line, with KUgt-102 derivatives, cell viability was measured by water soluble tetrazolium (WST) cell viability assay.
(§2) The lung cancer cell lines LLC and A549 were attached to a 96-well plate at 5×10e^3 and 1×10e^4 cells/wells, respectively. The next day, the culture medium was removed, and they were added with new medium treated with the KUgt-102 derivative and evogliptin and saxagliptin, respectively, which have a structure similar to that of the derivative of the present disclosure known as a DPP4 inhibitor, as a positive control, in a concentration-dependent manner from 0.01 to 20 mM. Cells treated with the derivative and control group were cultured at 37° C. in 5% CO2. After 2 days, the cultured cells were treated with WST reagent (EZ-CYTOX, Dogen, Republic of Korea) at a final volume of 1:10 to analyze cell viability. Thereafter, the cultured plate was stored in an incubator at 37° C.
(§3) After culturing for 1 hour, the color change was measured at 450 nm using a microplate reader (SpectraMAX190, molecular Devices, CA, USA), and the measurement results are shown in FIGS. 2 and 3.

[2] = system: A549, a human lung cancer cell line; assay: WST cell viability assay, A549; assay type: cell-based; settings: for IC50: 48 h, A549, human lung cancer, WST, read-out: Cell growth inhibition IC50
Protocol: as §1, §2, §3

DPP4 (human recombinant) = target: T1, DPP4 (human recombinant) (Homo sapiens, UniProt P27487); assay: DPP4 screening assay (Abcam 133081 kit, Gly-Pro-AMC fluorescent substrate); assay type: biochemical; settings: FIG. 1; for DPP4 inhibitory activity: treated at 1 μM, 100 nM, 10 nM, 1 nM and 100 pM, 37° C., 30 minutes
T1 construct: purchased Abcam (Boston, USA) 133081
T1 sequence (P27487 whole entry): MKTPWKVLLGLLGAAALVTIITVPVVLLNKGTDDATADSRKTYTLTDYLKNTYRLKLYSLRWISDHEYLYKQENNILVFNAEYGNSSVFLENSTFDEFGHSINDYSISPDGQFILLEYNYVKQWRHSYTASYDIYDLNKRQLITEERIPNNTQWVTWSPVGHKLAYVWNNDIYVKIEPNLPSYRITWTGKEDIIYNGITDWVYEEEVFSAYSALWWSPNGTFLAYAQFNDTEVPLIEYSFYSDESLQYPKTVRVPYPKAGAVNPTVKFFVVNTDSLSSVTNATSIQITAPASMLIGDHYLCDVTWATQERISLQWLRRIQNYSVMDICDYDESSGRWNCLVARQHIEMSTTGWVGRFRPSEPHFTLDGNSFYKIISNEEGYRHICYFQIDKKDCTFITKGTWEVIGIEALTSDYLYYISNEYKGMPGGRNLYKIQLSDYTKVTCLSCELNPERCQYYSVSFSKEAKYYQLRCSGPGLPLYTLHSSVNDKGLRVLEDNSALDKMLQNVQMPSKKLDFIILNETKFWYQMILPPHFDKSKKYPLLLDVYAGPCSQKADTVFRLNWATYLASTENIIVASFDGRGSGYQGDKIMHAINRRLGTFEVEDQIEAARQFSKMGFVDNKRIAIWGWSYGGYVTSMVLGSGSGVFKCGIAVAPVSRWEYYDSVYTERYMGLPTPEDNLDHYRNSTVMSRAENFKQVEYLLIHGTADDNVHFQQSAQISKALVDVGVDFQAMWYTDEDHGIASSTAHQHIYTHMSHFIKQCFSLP
Protocol: DPP4 screening assay was performed to identify the DPP4 inhibitory activity of the adamantyl derivatives KUgt-102 and KUgt-103 of the present disclosure. Abcam (Boston, USA) 133081 was used as an assay kit, and Gly-Pro-Aminomethylcoumarin was used as a fluorescent substrate. That is, the fluorescence emitted from aminomethylcoumarin (AMC), which was freed by cleaving the peptide bond by DPP, was analyzed at an excitation wavelength of 350 to 360 nm and an emission wavelength of 450 to 465 nm to measure the DPP4 inhibitory activity.
More specifically, DPP Assay Buffer (10×) was dissolved in HPLC-grade pure water, thereby preparing 1× solution. 120 μl of DPP4 (human recombinant) contained in each glass vial was mixed with 480 μl of 1× assay buffer. 120 μl of Gly-Pro-AMC, in which 5 mM H-Gly-Pro was conjugated to AMC, was dissolved in 2.88 ml assay buffer to produce DPP substrate. As a positive control, vildagliptin and saxagliptin, which have a similar structure to the derivative of the present disclosure, known as DPP4 inhibitor, were dissolved in 500 μl of assay buffer to make 1 mM, and the result was used in the reaction. As an experimental group, 10 μl each of adamantyl derivatives KUgt-102 and KUgt-103 was used in the reaction. […] The reaction was repeated three times.
After the reaction, fluorescence was measured at an excitation wavelength of 350-360 nm and an emission wavelength of 450-465 nm using a fluorescence microplate reader (SPECTRA MAX Gemini EM, USA). Thereafter, the inhibitory activity was calculated as follows.

Row | SMILES | IC50 [1] | IC50 ([2]; 0.01 to 20 mM, 2 days) | DPP4 inhibitory activity (DPP4 (human recombinant)) | cell viability ([1]; FIG. 2) | DPP4 inhibitory activity compared with positive controls vildagliptin and saxagliptin (DPP4 (human recombinant)) | cell viability ([2]; A549, 0.01 to 20 mM, 2 days, FIG. 3) | anticancer activity relative to evogliptin and saxagliptin, based on the same amount ([2]; human lung cancer cell lines) | amount needed for effective killing effect compared to evogliptin and saxagliptin ([2]; human lung cancer cell lines, relative to evogliptin and saxagliptin)
1 | CC(C)(C)OC[C@@H]1C(=O)NCCN1C(=O)C[C@H](N)Cc1cc(F)c(F)cc1F [Evogliptin, evogliptin, reference compound] | 660 ± 10 µM | 750 ± 10 µM | – | – | – | – | – | –
2 | N#C[C@@H]1C[C@@H]2C[C@@H]2N1C(=O)[C@@H](N)C12CC3CC(CC(O)(C3)C1)C2 [Saxagliptin, saxagliptin, reference compound] | 950 ± 10 µM | 900 ± 10 µM | – | – | – | – | – | –
3 | N[C@H](C(=O)N(CCO)CCO)C12CC3CC(CC(O)(C3)C1)C2 [KUgt-103, (S)-2-amino-2-((1r,3R,5R,7S)-3-hydroxyadamantan-1-yl)-N,N-bis(2-hydroxyethyl)acetamide] | – | – | excellent DPP4 inhibitory activity | – | – | – | – | –
4 | N#C[C@@H]1CCCCN1C(=O)[C@@H](N)C12CC3CC(CC(O)(C3)C1)C2 [KUgt-102, (S)-1-((S)-2-amino-2-((1r,3R,5R,7S)-3-hydroxyadamantan-1-yl)acetyl)piperidine-2-carbonitrile] | 330 ± 10 µM | 240 ± 10 µM | excellent DPP4 inhibitory activity | inhibited cell viability in a concentration-dependent manner | higher inhibitory activity than vildagliptin and saxacliptin | inhibited cell viability in a concentration-dependent manner | about three times better anticancer activity | ≤ 30%
